Test results: patent US6930092B1, “Antibiotic agents” (priority 1999, dated 2005)
Like-named read-outs stand apart in the source and are kept apart here.

What was measured:
[1] = type: physicochemical
Description: The suspected intermediate, eBee was prepared and then was added into a partially degraded erythromycin B, the mixture of partially degraded erythromycin B, and the pure eBee solution were compared. […] However, the involvement of eBee as the intermediate in the degradation of erythromycin B was clearly observed in the degradation experiment of eBee.
At present, there is no mechanism of degradation of erythromycin B which has been proposed. An experiment was designed to distinguish whether eBee is degraded to 5-deB via erythromycin B or not. Britton-Robinson buffers, 40 mM of pH2 and 7 were prepared and aliquoted into eppendorf tubes. Just before the experiment started, erythromycin B was dissolved in 20 ul of dimethyl-d6 sulfoxide (99.9 atom % D, Sigma, St Louis, USA) and then was transferred immediately into the buffer and 1D^1H NMR spectra were recorded at 37° C. The typical spectra at 0, 10 and 20 min are depicted in FIGS. 19, 20 and 21, respectively.
After 10 min, the amount of eBee was reduced to almost 40%, but 5-deB was still undetectable. After 20 min, 5-deB appeared in the spectrum, characterised by its H13 at δ5.38, whilst eBee became insignificant in the spectrum.
A similar experiment was repeated by using buffer at pH 7, and 1D^1H spectra were recorded at 37° C. The spectrum of eBee after 0 and 60 min of incubation are depicted in FIGS. 22 and 23, respectively. […] There was trace of erythromycin B but no eBee was detected in the spectra.

[2] = cited from earlier work
[3] = Degradation of 5-deB in Britton-Robinson buffer followed by 1D 1H NMR; type: physicochemical; settings: apparent pH 2.5, 55° C., 5 hr
Source text: The deuteriation effects at C8 as in erythromycin B were observed but there was no change elsewhere.

For `CC[C@H]1OC(=O)[C@H](C)[C@@H](O[C@H]2C[C@@](C)(OC)[C@@H](O)[C@H](C)O2)[C@H](C)[C@@H](O[C@@H]2O[C@H](C)C[C@H](N(C)C)[C@H]2O)C2(C)CC(C)=C(O2)[C@H](C)[C@@H](O)[C@H]1C` (stereo partly shown) [eBee, erythromycin B enol ether], the “amount of eBee in the spectrum” value ([1]; Britton-Robinson buffer pH 2, 37° C., after 20 min) was “insignificant”, the “amount of eBee remaining” value ([1]; buffer, 10 min, pH 2) was about 40% and the degradation ([1]; pH 2.5) was “rapidly degraded to erythromycin B”. For the same compound, the degradation ([1]; pH 7) was “not degraded at least for 80 min”.
For `CC[C@H]1OC(=O)[C@H](C)[C@@H](O[C@H]2C[C@@](C)(OC)[C@@H](O)[C@H](C)O2)[C@H](C)[C@@H](O[C@@H]2O[C@H](C)C[C@H](N(C)C)[C@H]2O)[C@](C)(O)C[C@@H](C)C(=O)[C@H](C)[C@@H](O)[C@]1(C)O` [erythromycin A], the “time in which degraded to completeness” value ([2]; 50 mM acetate buffer pH 4.6, 60° C.) is given as at most 3 h, the “time in which decomposed almost completely” value ([2]; 50 mM formate buffer pH 4, 37° C.) is given as at most 4 h and the degradation ([2]; pH 3.5, 35° C.) is given as “degraded substantially even before the first spectrum was recorded”.
With `CC[C@H]1OC(=O)[C@H](C)[C@@H](O[C@H]2C[C@@](C)(OC)[C@@H](O)[C@H](C)O2)[C@H](C)[C@@H](O[C@@H]2O[C@H](C)C[C@H](N(C)C)[C@H]2O)[C@](C)(O)C[C@@H](C)C(=O)[C@H](C)[C@@H](O)[C@H]1C` [erythromycin B, Erythromycin B] the “time in which decomposition was completed” value (pH 2.5, depending on the temperature used) was 6 to 12 h and the degradation (pH 4.6) was “degradation occurred very slowly”.
In the case of 5-desosaminyl erythronolide B [5-deB], the further degradation [3] is reported as “does not degrade further”.
